Laboratory results: patent publication US20030144310A1 (priority 2001, published 2003)
Like-named read-outs stand apart in the source and are kept apart here.

Legend:
rNPFF-1 [1] = target: T1, rNPFF-1 (Rattus norvegicus, UniProt Q9EP86); experiment: Radioligand binding assay, competitive displacement of [125I]1DMeNPFF at cloned NPFF receptors; conditions: cloned rat receptor
T1 construct: expressed in transfected cells

rNPFF-2 [2] = target: T2, rNPFF-2 (Rattus norvegicus, UniProt Q9EQD2); experiment: as above; conditions: cloned rat receptor
T2 construct: expressed in transfected cells

rNPFF-1 [3] = target: T1, rNPFF-1; experiment: Functional activity (EC50 and intrinsic activity relative to NPFF); type: cell-based; conditions: for Functional Activity rNPFF-1 I.A. %: intrinsic activity as percentage of maximal response by NPFF; for EC50: tested 0.001 nM to 3600 nM
Text: (§1) The data shown are representative of at least two independent experiments.

rNPFF-2 [4] = target: T2, rNPFF-2; experiment: as above; type: cell-based; conditions: for Functional Activity rNPFF-2 I.A. %: intrinsic activity as percentage of maximal response by NPFF
Text: as §1

[5] = tested 0.001 nM to 3600 nM, read-out: Functional Activity rNPFF-2 EC50
[6] = rat cloned NPFF receptors, by IA and Ki

T1 sequence (Q9EP86 whole entry): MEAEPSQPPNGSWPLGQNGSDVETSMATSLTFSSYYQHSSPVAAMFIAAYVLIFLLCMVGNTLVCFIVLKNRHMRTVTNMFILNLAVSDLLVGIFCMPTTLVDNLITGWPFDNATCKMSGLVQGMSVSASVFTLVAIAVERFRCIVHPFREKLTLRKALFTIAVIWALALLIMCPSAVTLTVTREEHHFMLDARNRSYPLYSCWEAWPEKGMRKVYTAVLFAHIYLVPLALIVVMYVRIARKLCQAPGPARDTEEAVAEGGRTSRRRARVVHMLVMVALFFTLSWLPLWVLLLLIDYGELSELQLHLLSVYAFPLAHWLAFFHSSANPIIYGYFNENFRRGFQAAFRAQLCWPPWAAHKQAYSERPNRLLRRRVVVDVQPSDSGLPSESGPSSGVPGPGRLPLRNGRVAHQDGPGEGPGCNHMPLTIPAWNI
T2 sequence (Q9EQD2 whole entry): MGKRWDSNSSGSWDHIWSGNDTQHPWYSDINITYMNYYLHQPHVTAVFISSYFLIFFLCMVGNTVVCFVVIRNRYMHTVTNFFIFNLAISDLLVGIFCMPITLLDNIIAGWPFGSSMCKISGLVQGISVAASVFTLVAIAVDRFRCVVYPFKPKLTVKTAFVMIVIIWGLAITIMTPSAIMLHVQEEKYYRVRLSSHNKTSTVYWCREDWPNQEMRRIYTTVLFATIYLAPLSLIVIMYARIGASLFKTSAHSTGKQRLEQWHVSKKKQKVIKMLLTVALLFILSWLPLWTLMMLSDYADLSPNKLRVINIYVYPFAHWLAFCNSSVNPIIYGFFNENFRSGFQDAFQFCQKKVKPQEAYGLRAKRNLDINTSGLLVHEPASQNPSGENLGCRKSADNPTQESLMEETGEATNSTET

N=C(N)NCCC[C@H](NS(=O)(=O)c1ccc2ccccc2c1)C(=O)N[C@@H](Cc1ccccc1)C(N)=O [Compound 1014, N1-[(1S)-2-Amino-1-benzyl-2-oxoethyl]-(2S)-(5-guanidino)-2-[(2-naphthylsulfonyl)amino]pentanamide]
Ki (rNPFF-1 [1]): 314 nM | Ki (rNPFF-2 [2]): 2780 nM | Functional Activity rNPFF-1 I.A. % (rNPFF-1 [3]): 74% | EC50 (rNPFF-1 [3]): 52 nM | Functional Activity rNPFF-2 I.A. % (rNPFF-2 [4]): 73% | EC50 (rNPFF-2 [4]; [5]): 906 nM

N=C(N)NCCC[C@H](NS(=O)(=O)c1c(Cl)cccc1Cl)C(=O)N[C@@H](Cc1ccccc1)C(N)=O [Compound 1019]
Ki (rNPFF-1 [1]): 815 nM | Ki (rNPFF-2 [2]): 3370 nM | Functional Activity rNPFF-1 I.A. % (rNPFF-1 [3]): 56% | EC50 (rNPFF-1 [3]): 2200 nM | Functional Activity rNPFF-2 I.A. % (rNPFF-2 [4]): 45% | EC50 (rNPFF-2 [4]; [5]): > 3160 nM

CN(C)c1cccc2c(S(=O)(=O)N[C@@H](CCCN=C(N)N)C(=O)N[C@@H](Cc3ccccc3)C(N)=O)cccc12 [dansyl-RFamide, reference compound]
Ki (rNPFF-1 [1]): 88 nM | Ki (rNPFF-2 [2]): 2310 nM | Functional Activity rNPFF-1 I.A. % (rNPFF-1 [3]): 106% | EC50 (rNPFF-1 [3]): 524 nM | Functional Activity rNPFF-2 I.A. % (rNPFF-2 [4]): 96% | EC50 (rNPFF-2 [4]; [5]): 2520 nM

N=C(N)NCCC[C@@H](NS(=O)(=O)c1cccc2ccccc12)C(=O)N[C@@H](Cc1ccccc1)C(N)=O [Compound 3001]
Ki (rNPFF-1 [1]): 46 nM | Ki (rNPFF-2 [2]): 2860 nM | Functional Activity rNPFF-1 I.A. % (rNPFF-1 [3]): 1% | classification agonist/antagonist at NPFF1 receptors (rNPFF-1 [3]; [6]): antagonist (an antagonist has a Ki≦1.2 μM and an intrinsic activity (IA)≦15%) | EC50 (rNPFF-1 [3]): > 10000 nM | Functional Activity rNPFF-2 I.A. % (rNPFF-2 [4]): 79% | classification agonist/antagonist at NPFF2 receptors (rNPFF-2 [4]; [6]): agonist (an agonist has an intrinsic activity (IA)>15%) | EC50 (rNPFF-2 [4]; [5]): 378 nM

N=C(N)NCCC[C@H](NS(=O)(=O)c1ccc(Cl)c([N+](=O)[O-])c1)C(=O)N[C@@H](Cc1ccccc1)C(N)=O [Compound 1016]
Ki (rNPFF-1 [1]): 151 nM | Ki (rNPFF-2 [2]): 2090 nM | Functional Activity rNPFF-1 I.A. % (rNPFF-1 [3]): 72% | EC50 (rNPFF-1 [3]): 62 nM | Functional Activity rNPFF-2 I.A. % (rNPFF-2 [4]): 81% | EC50 (rNPFF-2 [4]; [5]): 660 nM

N=C(N)NCCC[C@H](NS(=O)(=O)c1ccc(I)cc1)C(=O)N[C@@H](Cc1ccccc1)C(N)=O [Compound 1012]
Ki (rNPFF-1 [1]): 1430 nM | Ki (rNPFF-2 [2]): 2920 nM | Functional Activity rNPFF-1 I.A. % (rNPFF-1 [3]): 71% | EC50 (rNPFF-1 [3]): 358 nM | Functional Activity rNPFF-2 I.A. % (rNPFF-2 [4]): 93% | EC50 (rNPFF-2 [4]; [5]): 1420 nM

N#Cc1ccccc1S(=O)(=O)N[C@@H](CCCNC(=N)N)C(=O)N[C@@H](Cc1ccccc1)C(N)=O [Compound 1027]
Ki (rNPFF-1 [1]): 515 nM | Ki (rNPFF-2 [2]): 6170 nM | EC50 (rNPFF-1 [3]): 183 nM | EC50 (rNPFF-2 [4]; [5]): > 3160 nM

N=C(N)NCCC[C@H](NS(=O)(=O)Cc1ccccc1)C(=O)N[C@@H](Cc1ccccc1)C(N)=O [Compound 1011, N1-[(1S)-2-Amino-1-benzyl-2-oxoethyl]-(25)-5-[amino(imino)methyl]amino-2-[(benzylsulfonyl)amino]pentanamide]
Ki (rNPFF-1 [1]): 5960 nM | Ki (rNPFF-2 [2]): > 10000 nM | Functional Activity rNPFF-1 I.A. % (rNPFF-1 [3]): 74% | EC50 (rNPFF-1 [3]): 765 nM | Functional Activity rNPFF-2 I.A. % (rNPFF-2 [4]): 62% | EC50 (rNPFF-2 [4]; [5]): 1340 nM

N=C(N)NCCC[C@H](NS(=O)(=O)c1cc(Cl)ccc1Cl)C(=O)N[C@@H](Cc1ccccc1)C(N)=O [Compound 1021]
Ki (rNPFF-1 [1]): 335 nM | Ki (rNPFF-2 [2]): 2030 nM | Functional Activity rNPFF-1 I.A. % (rNPFF-1 [3]): 78% | EC50 (rNPFF-1 [3]): 1030 nM | Functional Activity rNPFF-2 I.A. % (rNPFF-2 [4]): 59% | EC50 (rNPFF-2 [4]; [5]): 2330 nM

N=C(N)NCCC[C@H](NS(=O)(=O)c1ccccc1)C(=O)N[C@@H](Cc1ccccc1)C(N)=O [Compound 1008]
Ki (rNPFF-1 [1]): 321 nM | Ki (rNPFF-2 [2]): 4410 nM | Functional Activity rNPFF-1 I.A. % (rNPFF-1 [3]): 70% | EC50 (rNPFF-1 [3]): 4700 nM | Functional Activity rNPFF-2 I.A. % (rNPFF-2 [4]): 20% | EC50 (rNPFF-2 [4]; [5]): 5620 nM

N=C(N)NCCC[C@H](NS(=O)(=O)c1cccc([N+](=O)[O-])c1)C(=O)N[C@@H](Cc1ccccc1)C(N)=O [Compound 1002]
Ki (rNPFF-1 [1]): 136 nM | Ki (rNPFF-2 [2]): 1250 nM | Functional Activity rNPFF-1 I.A. % (rNPFF-1 [3]): 88% | EC50 (rNPFF-1 [3]): 139 nM | Functional Activity rNPFF-2 I.A. % (rNPFF-2 [4]): 89% | EC50 (rNPFF-2 [4]; [5]): 846 nM

N=C(N)NCCC[C@H](NS(=O)(=O)c1c(F)cccc1F)C(=O)N[C@H](Cc1ccccc1)C(N)=O [Compound 1032]
Ki (rNPFF-1 [1]): 1290 nM | Ki (rNPFF-2 [2]): > 10000 nM | Functional Activity rNPFF-1 I.A. % (rNPFF-1 [3]): 47% | EC50 (rNPFF-1 [3]): 644 nM | Functional Activity rNPFF-2 I.A. % (rNPFF-2 [4]): 61% | EC50 (rNPFF-2 [4]; [5]): 2760 nM

N=C(N)NCCC[C@H](NS(=O)(=O)c1ccc([N+](=O)[O-])cc1[N+](=O)[O-])C(=O)N[C@@H](Cc1ccccc1)C(N)=O [Compound 2002]
Ki (rNPFF-1 [1]): 1390 nM | Ki (rNPFF-2 [2]): 5490 nM | Functional Activity rNPFF-1 I.A. % (rNPFF-1 [3]): 34% | EC50 (rNPFF-2 [4]): > 10000 nM | Functional Activity rNPFF-2 I.A. % (rNPFF-2 [4]): 05%

N=C(N)NCCC[C@H](NS(=O)(=O)c1cccs1)C(=O)N[C@@H](Cc1ccccc1)C(N)=O [Compound 1013]
Ki (rNPFF-1 [1]): 211 nM | Ki (rNPFF-2 [2]): 6390 nM | Functional Activity rNPFF-1 I.A. % (rNPFF-1 [3]): 80% | EC50 (rNPFF-1 [3]): 135 nM | Functional Activity rNPFF-2 I.A. % (rNPFF-2 [4]): 42% | EC50 (rNPFF-2 [4]; [5]): > 3160 nM

N=C(N)NCCC[C@H](NS(=O)(=O)c1cc(Cl)sc1Cl)C(=O)N[C@@H](Cc1ccccc1)C(N)=O [Compound 1020]
Ki (rNPFF-1 [1]): 1950 nM | Ki (rNPFF-2 [2]): 5150 nM | Functional Activity rNPFF-1 I.A. % (rNPFF-1 [3]): 01% | EC50 (rNPFF-1 [3]): > 10000 nM | Functional Activity rNPFF-2 I.A. % (rNPFF-2 [4]): 02% | EC50 (rNPFF-2 [4]; [5]): > 10000 nM

N#Cc1cccc(S(=O)(=O)N[C@@H](CCCNC(=N)N)C(=O)N[C@@H](Cc2ccccc2)C(N)=O)c1 [Compound 1023]
Ki (rNPFF-1 [1]): 496 nM | Ki (rNPFF-2 [2]): 9920 nM | Functional Activity rNPFF-1 I.A. % (rNPFF-1 [3]): 90% | EC50 (rNPFF-1 [3]): 166 nM | Functional Activity rNPFF-2 I.A. % (rNPFF-2 [4]): 28% | EC50 (rNPFF-2 [4]; [5]): > 3160 nM

N=C(N)NCCC[C@H](NS(=O)(=O)c1ccccc1[N+](=O)[O-])C(=O)N[C@@H](Cc1ccccc1)C(N)=O [Compound 1026]
Ki (rNPFF-1 [1]): 535 nM | Ki (rNPFF-2 [2]): 3500 nM | Functional Activity rNPFF-1 I.A. % (rNPFF-1 [3]): 79% | EC50 (rNPFF-1 [3]): 412 nM | Functional Activity rNPFF-2 I.A. % (rNPFF-2 [4]): 59% | EC50 (rNPFF-2 [4]; [5]): > 3160 nM

N=C(N)NCCC[C@H](NS(=O)(=O)c1ccc(F)cc1)C(=O)N[C@H](Cc1ccccc1)C(N)=O [Compound 1033]
Ki (rNPFF-1 [1]): 458 nM | Ki (rNPFF-2 [2]): > 10000 nM | Functional Activity rNPFF-1 I.A. % (rNPFF-1 [3]): 42% | EC50 (rNPFF-1 [3]): 1600 nM | Functional Activity rNPFF-2 I.A. % (rNPFF-2 [4]): 57% | EC50 (rNPFF-2 [4]; [5]): 1940 nM

N=C(N)NCCC[C@H](NS(=O)(=O)c1cccc2ccccc12)C(=O)N[C@@H](Cc1ccccc1)C(N)=O [Compound 1001, N1-[(1S)-2-Amino-1-benzyl-2-oxoethyl]-(2S)-(5-guanidino)-2-[(1-naphthylsulfonyl)amino]pentanamide]
Ki (rNPFF-1 [1]): 261 nM | Ki (rNPFF-2 [2]): 1450 nM | Functional Activity rNPFF-1 I.A. % (rNPFF-1 [3]): 88% | EC50 (rNPFF-1 [3]): 38 nM | Functional Activity rNPFF-2 I.A. % (rNPFF-2 [4]): 81% | EC50 (rNPFF-2 [4]; [5]): 527 nM

N=C(N)NCCC[C@H](NS(=O)(=O)c1ccc(F)cc1)C(=O)N[C@@H](Cc1ccccc1)C(N)=O [Compound 1005]
Ki (rNPFF-1 [1]): 150 nM | Ki (rNPFF-2 [2]): 1370 nM | Functional Activity rNPFF-1 I.A. % (rNPFF-1 [3]): 71% | EC50 (rNPFF-1 [3]): 104 nM | Functional Activity rNPFF-2 I.A. % (rNPFF-2 [4]): 46% | EC50 (rNPFF-2 [4]; [5]): 3500 nM

COc1ccc(Br)cc1S(=O)(=O)N[C@@H](CCCNC(=N)N)C(=O)N[C@@H](Cc1ccccc1)C(N)=O [Compound 1025]
Ki (rNPFF-1 [1]): 328 nM | Ki (rNPFF-2 [2]): 4120 nM | Functional Activity rNPFF-1 I.A. % (rNPFF-1 [3]): 78% | EC50 (rNPFF-1 [3]): 596 nM | Functional Activity rNPFF-2 I.A. % (rNPFF-2 [4]): 33% | EC50 (rNPFF-2 [4]; [5]): > 3160 nM

N=C(N)NCCC[C@H](NS(=O)(=O)c1ccc(Cl)cc1)C(=O)N[C@@H](Cc1ccccc1)C(N)=O [Compound 1006]
Ki (rNPFF-1 [1]): 266 nM | Ki (rNPFF-2 [2]): 1010 nM | Functional Activity rNPFF-1 I.A. % (rNPFF-1 [3]): 75% | EC50 (rNPFF-1 [3]): 151 nM | Functional Activity rNPFF-2 I.A. % (rNPFF-2 [4]): 43% | EC50 (rNPFF-2 [4]; [5]): 3720 nM

N=C(N)NCCC[C@H](NS(=O)(=O)c1ccc([N+](=O)[O-])cc1)C(=O)N[C@@H](Cc1ccccc1)C(N)=O [Compound 1003]
Ki (rNPFF-1 [1]): 732 nM | Ki (rNPFF-2 [2]): 2610 nM | Functional Activity rNPFF-1 I.A. % (rNPFF-1 [3]): 74% | EC50 (rNPFF-1 [3]): 149 nM | Functional Activity rNPFF-2 I.A. % (rNPFF-2 [4]): 44% | EC50 (rNPFF-2 [4]; [5]): 1870 nM
